Consider 4 compounds from patent publication EP1184030A1, “Antibacterial composition comprising trimethylnorbornanylcyclohexanol derivatives” (Givaudan SA, priority 2000, dated 2002).

For one data set, the system named is Corynebacteria. In words: MIC microtiter plate test, Corynebacteria. Type of data set: cell-based. An excerpt:
The different bacterial strains had been isolated from the human axilla by current microbiological practice. They were taxonomically identified by cell morphology, gram-reaction and biochemical tests included in the Api coryne test kit (BioMerieux, France). Strain Staphylococcus epidermidis Ax25 was identified by fatty acid methyl ester analysis (FAME; German type strain collection DSMZ, Germany). The strains were maintained on Tryptic soy broth plates, this standard medium being amended with 5 g per Litre of Tween 80 and 1 g of Soybean lecithin. Plates were incubated at 36° C for a period 48 hours. The bacteria were then swabbed from the plates and suspended in 4 ml of Müller-Hinton broth amended with 100 mg of Tween80 per Litre (MH-Tween) and incubated again at 36° C for 16 hours. Following incubation the bacterial suspensions were diluted in MH-Tween to obtain a final cell density of 10^6 colony forming units per ml. For each fragrance material four microtiter plates were used in the example, each microtiter plate having 8 rows, A-H, and 12 columns, 1-12. […]
Since sandela is known to be a mixture of different reaction products, commercial sandela was subjected to a distillation process. […] The different fractions were evaluated for their antimicrobial activity (Table 6) with the method described in example 1. […]

The subject of data set [1] is Ax 20 Corynebacterium striatum/amycolatum. The data set can be described thus: MIC microtiter plate test, axilla bacteria. To be noted: Corynebacterium striatum, read-out: Minimal inhibitory concentration (MIC). The format is cell-based. An excerpt:
(§1) The different bacterial strains had been isolated from the human axilla by current microbiological practice. They were taxonomically identified by cell morphology, gram-reaction and biochemical tests included in the Api coryne test kit (BioMerieux, France). Strain Staphylococcus epidermidis Ax25 was identified by fatty acid methyl ester analysis (FAME; German type strain collection DSMZ, Germany). The strains were maintained on Tryptic soy broth plates, this standard medium being amended with 5 g per Litre of Tween 80 and 1 g of Soybean lecithin. Plates were incubated at 36° C for a period 48 hours. The bacteria were then swabbed from the plates and suspended in 4 ml of Müller-Hinton broth amended with 100 mg of Tween80 per Litre (MH-Tween) and incubated again at 36° C for 16 hours. Following incubation the bacterial suspensions were diluted in MH-Tween to obtain a final cell density of 10^6 colony forming units per ml. For each fragrance material four microtiter plates were used in the example, each microtiter plate having 8 rows, A-H, and 12 columns, 1-12. To each column a diluted suspension of a different test organism was distributed, 100 µl per well. 1% stock solutions of the fragrance materials were then prepared in MH-Tween broth. The fragrance material was dispersed by ultrasonication into the aqueous medium to obtain a homogenous emulsion. 100 µl per well of this emulsion was then added to the first row of the microtiter plates already containing the target organisms. Serial dilution series were then prepared starting at row A and continuing until row G, each time removing 100 µl from a well and transferring it to the next well. In this way fragrance concentrations of 0.5%, 0.25%, 0.125%, 0.0625%, 0.03125%, 0.0156% and 0.0078% were tested for their antibacterial efficacy. The reference compound Triclosan was tested at 16 fold lower concentrations. The plates were covered with plastic films and incubated for 24 h at 36° C with shaking at 250 rpm. The turbidity developing in the microtiter plates was then examined after 24 h to determine microbial growth. The minimal concentration of fragrance inhibiting the growth of an organism by at least 80% was determined as the minimal inhibitory concentration (MIC).
(§2) Ax 25 was identified as Staphylococcus epidermidis by FAME analysis. Identification with the Api Coryne test kit yielded the following species assignments for the remainder of the strains: Ax 26 Corynebacterium sp.; Ax 3 Corynebacterium bovis; Ax 7 Corynebacterium group G; Ax 10 Corynebacterium jeikeium; Ax 11 Corynebacterium jeikeium; Ax 12 Corynebacterium jeikeium; Ax 15 Corynebacterium jeikeium; Ax 20 Corynebacterium striatum/amycolatum; Ax 19 Corynebacterium jeikeium. The strains were isolated from the axilla of 8 human volunteers. Based on biochemical tests and colony morphology all strains were distinct from each other, even the several strains all belonging to Corynebacterium jeikeium.

Data set [2] concerns Staphylococcus epidermidis Ax25. The data set can be described thus: MIC microtiter plate test, axilla bacteria. The format is cell-based. The note with it: for MIC: Staphylococcus epidermidis; for Bacteriostatic activity (concentration needed for at least 80% reduction in growth): Table 8.
Description: as §1, §2

Data set [3] relates to Ax 3 Corynebacterium bovis. The data set can be described thus: MIC microtiter plate test, axilla bacteria. The note with it: Corynebacterium bovis, read-out: Minimal inhibitory concentration (MIC). Type of data set: cell-based.
Description: as §1, §2

Data set [4] concerns Ax 15 Corynebacterium jeikeium. The data set can be described thus: MIC microtiter plate test, axilla bacteria. Type of data set: cell-based. The note with it: for MIC: Corynebacterium jeikeium; for Bacteriostatic activity (concentration needed for at least 80% reduction in growth): Table 8.
Description: as §1, §2

Data set [5] relates to Ax 10 Corynebacterium jeikeium. In words: MIC microtiter plate test, axilla bacteria. The format is cell-based. To be noted: Corynebacterium jeikeium, read-out: Minimal inhibitory concentration (MIC).
Description: as §1, §2

In data set [6] the test system is Ax 7 Corynebacterium group G. The data set can be described thus: MIC microtiter plate test, axilla bacteria. The format is cell-based. The note with it: for MIC: Corynebacterium; for Bacteriostatic activity (concentration needed for at least 80% reduction in growth): Table 8.
Description: as §1, §2

Data set [7] deals with Ax 26 Corynebacterium sp. The data set can be described thus: MIC microtiter plate test, axilla bacteria. The format is cell-based. To be noted: for MIC: Corynebacterium; for Bacteriostatic activity (concentration needed for at least 80% reduction in growth): Table 8.
Description: as §1, §2

For data set [8], the system named is Ax 11 Corynebacterium jeikeium. The data set can be described thus: MIC microtiter plate test, axilla bacteria. The format is cell-based. To be noted: Corynebacterium jeikeium, read-out: Minimal inhibitory concentration (MIC).
Description: as §1, §2

For data set [9], the system named is Ax 12 Corynebacterium jeikeium. In words: MIC microtiter plate test, axilla bacteria. The format is cell-based. To be noted: Corynebacterium jeikeium, read-out: Minimal inhibitory concentration (MIC).
Description: as §1, §2

A short description of a further data set: Vapour pressure. The format is physicochemical. An excerpt:
Odoriferous substances are by definition volatile compounds which evaporate from the skin and therefore loose their deodorising effect. Furthermore small water-soluble fragrance compounds can get dissolved in sweat and are thus rapidly diluted under conditions of high sweat secretion which further reduces the duration of the deodorising effect. Therefore a low water solubility indicated by a high LogP value and a low volatility indicated by low vapour pressure are desired for odoriferous substances which are used for their antibacterial activity.

For data set [10], the system named is Ax 19 Corynebacterium jeikeium. In words: MIC microtiter plate test, axilla bacteria. The format is cell-based. To be noted: 24 h, read-out: Minimal inhibitory concentration (MIC).
Description: as §1, §2

[11] abbreviates: Ax26, growth inhibition by at least 80%, 24 h at 36° C, read-out: Minimal inhibitory concentration (MIC).
Where [12] appears, read: Table 7, Corynebact. Ax26, 24 hours, read-out: Bacteriostatic activity (concentration needed for at least 80% reduction in growth).
Setting [13] is: 24 h, read-out: Bacteriostatic activity (concentration needed for at least 80% reduction in growth).
[14] abbreviates: 24 h, read-out: Minimal inhibitory concentration (MIC).

Converted amounts (≈) assume the structure as drawn. Where two headings read alike, the source gives them in different places.

Regarding `COC1CC(C2CC3CC2C(C)C3(C)C)CCC1O` (centres unmarked) [2-methoxy-4-(5,5,6-trimethylbicyclo[2.2.1]hept-2-yl)cyclohexan-1-ol], the “activity against Corynebacteria” value with Corynebacteria is on record as “highest activity”.

With `CC(C)=CCCC(C)=CCCC(C)=CCO` [Farnesol, 3,7,11-trimethyl-2,6,10-dodecatrien-1-ol], the MIC in data set [1] (Ax20, growth inhibition by at least 80%, 24 h at 36° C) stood at 137 µg/mL (≈ 616 µM); in [2] (AX25, Ax 25, growth inhibition by at least 80%, 24 h at 36° C, read-out: Minimal inhibitory concentration (MIC)), 156 µg/mL (≈ 702 µM); in data set [2] (AX25, Table 7, S. epidermidis, 24 hours, read-out: Bacteriostatic activity (concentration needed for at least 80% reduction in growth)), 156 µg/mL (≈ 702 µM); in data set [3] (Ax3, growth inhibition by at least 80%, 24 h at 36° C) it was 156 µg/mL (≈ 702 µM); in data set [4] (Ax15, growth inhibition by at least 80%, 24 h at 36° C, read-out: Minimal inhibitory concentration (MIC)), 156 µg/mL (≈ 702 µM); in [4] (Table 7, Corynebact. Ax15, 24 hours, read-out: Bacteriostatic activity (concentration needed for at least 80% reduction in growth)), 156 µg/mL (≈ 702 µM). Further, the MIC in data set [5] (Ax10, growth inhibition by at least 80%, 24 h at 36° C) came out at 78 µg/mL (≈ 351 µM); in data set [6] (Ax7, growth inhibition by at least 80%, 24 h at 36° C, read-out: Minimal inhibitory concentration (MIC)) it was 137 µg/mL (≈ 616 µM); in data set [6] (Table 7, Corynebact. Ax7, 24 hours, read-out: Bacteriostatic activity (concentration needed for at least 80% reduction in growth)) it was 137 µg/mL (≈ 616 µM); in data set [7] (setting [11]), 78 µg/mL (≈ 351 µM); in data set [7] (setting [12]), 78 µg/mL (≈ 351 µM); in data set [8] (Ax11, growth inhibition by at least 80%, 24 h at 36° C), 195 µg/mL (≈ 877 µM). The MIC in data set [9] (Ax12, growth inhibition by at least 80%, 24 h at 36° C) amounted to 137 µg/mL (≈ 616 µM). Besides, the “Bacteriostatic activity (concentration needed for at least 80% reduction in growth)” value in data set [2] (S. epidermidis, 24 hours) is 0.0156 percent (w/v); in data set [4] (Corynebact. Ax15, 24 hours), 0.0156 percent (w/v); in data set [6] (Corynebact. Ax7, 24 hours), 0.0137 percent (w/v); in data set [7] (Corynebact. Ax26, 24 hours), 0.0078 percent (w/v). The compound further displayed a vapour pressure in “Vapour pressure” of 1.35 µg/L.

For the compound `COC1CCC(C2CC3CC2C(C)C3(C)C)CC1O` (centres unmarked) [2-methoxy-5-(5,5,6-trimethyl-bicyclo[2.2.1]hept-2-yl)cyclohexan-1-ol], the “activity against Corynebacteria” value in the data set with Corynebacteria is “highest activity”.

For the compound `Oc1cc(Cl)ccc1Oc1ccc(Cl)cc1Cl` [Triclosan, 2,4,4'-trichloro-2'-hydroxy-diphenyl-ether], the MIC in data set [1] (24 h) came out at 107 µg/mL (≈ 370 µM); in data set [2] (AX25, 24 h, read-out: Bacteriostatic activity (concentration needed for at least 80% reduction in growth)) it was 0.15 µg/mL (≈ 0.518 µM); in [2] (AX25, 24 h, read-out: Minimal inhibitory concentration (MIC)), 0.15 µg/mL (≈ 0.518 µM); in data set [3] (24 h), 29 µg/mL (≈ 100 µM); in data set [4] (setting [13]) it was 30 µg/mL (≈ 104 µM); in data set [4] (setting [14]), 29 µg/mL (≈ 100 µM). In addition, the MIC in data set [5] (24 h) came out at 20 µg/mL (≈ 69.1 µM); in data set [6] (setting [13]) it was 25 µg/mL (≈ 86.3 µM); in data set [6] (setting [14]), 29 µg/mL (≈ 100 µM); in [10], 39 µg/mL (≈ 135 µM); in [7] (setting [11]), 15 µg/mL (≈ 51.8 µM); in data set [7] (setting [12]), 25 µg/mL (≈ 86.3 µM). Further, the MIC was 29 µg/mL (≈ 100 µM) in [8] (24 h) and 17 µg/mL (≈ 58.7 µM) in data set [9] (24 h). Besides, the “Bacteriostatic activity (concentration needed for at least 80% reduction in growth)” value in data set [2] (S. epidermidis, 24 hours) is on record as 0.000015 percent (w/v); in data set [4] (Corynebact. Ax15, 24 hours), 0.0030 percent (w/v); in [6] (Corynebact. Ax7, 24 hours), 0.0025 percent (w/v); in [7] (Corynebact. Ax26, 24 hours), 0.0025 percent (w/v).
